Data from PMC5236087, “A Generic Multi-Compartmental CNS Distribution Model Structure for 9 Drugs Allows Prediction of Human Brain Target Site Concentrations” (Pharmaceutical Research, 2016).
Read-outs that look alike come from different tables or passages of the source. Marks after values point to notes of the source that are not given here.

What was measured:
[1] = Multi-compartmental brain PK model fitted to rat plasma and microdialysis (brainECF, CSF) data; format: in vivo; conditions: parameter estimate (RSE, %); for clearance: male, Wistar, plasma, intravenous infusion, read-out: CLPL, clearance from the central compartment
Description: An overview of experimental data for nine compounds with different physicochemical characteristics used for model development is provided in Table I. The physicochemical characteristics of the nine compounds are provided in Table SI.
Animal study protocols were approved by the Animal Ethics Committee of Leiden University and all animal experiments were performed in accordance with the Dutch Law of Animal Experimentation (for approval numbers see Table SII). […] Between surgery and experiments, the animals were kept individually in Makrolon type three cages for 7 days to recover from surgical procedures.
Rats were anesthetized (5% isoflurane for induction, 1–2% as maintenance), and subsequently received cannulas in the femoral artery for serial blood sampling, and in the femoral vein for drug administration, respectively. Subsequently, microdialysis guides were inserted into different brain locations. The animals were allowed to recover for 1 week before the experiments were performed. One day before the experiment, the microdialysis dummies were replaced by microdialysis probes. For details on guides, probes and locations see Table SII.
Experiments generally started at 9:00 a.m. to minimize the influence of circadian rhythms. Microdialysis probes were continuously flushed with microdialysis perfusion fluid (PF) until equilibration before the start of drug administration. Drugs were administered at t = 0 h by intravenous infusion through the cannula implanted in the femoral vein. […] The general procedure of microdialysis is depicted in Fig. 1.
Separate models describing plasma and brain concentration-time profiles for all nine compounds were developed whereby plasma- and brain-related parameters were estimated simultaneously. A naïve pooling approach was used ([37]), i.e. inter-individual variability in each compound’s data was not quantified, because of the highly standardized experimental settings combined with the homogeneous nature of the animals within each study.
The structural model that was used as a starting point was based on our previously developed models ([23]–[25]).
First, a combined drug dispersion parameter was estimated to capture the CSF and ECF flow and turbulence flow of the drug molecules ([38],[39]).
Second, drug transfer across the BCSFB was excluded.
We evaluated for each drug the validity of the changes to the basic model with regard to a single or two different flow rates for drug dispersion and drug transport at the BCSFB.

[2] = set-up: method as in DrugBank (http://www.drugbank.ca/); PSA: unit not given beside the values; conditions: ref DrugBank (http://www.drugbank.ca/), cited from earlier work
[3] = cited from earlier work; for fP (%), free fraction in plasma: rat data; for plasma protein binding (% bound): used to calculate free fraction in plasma
[4] = set-up: method as in PMID 4150300; conditions: human; cited from earlier work
MRPs, OATs and OATPs = assay: Effect of co-administered probenecid on drug exchange at the BBB and BCSFB; format: in vivo; conditions: rat
[5] = Fraction unbound in plasma (rat data); format: in vitro ADME; conditions: rat pooled plasma, ultrafiltration; read-out: fP (%), free fraction in plasma
Description: To determine the free fraction of paliperidone and risperidone in plasma samples, Centrifree Ultrafiltration Devices from Merck Millipore (Amsterdam, The Netherlands) were used to separate the free from the protein bound risperidone and paliperidone in pooled plasma samples. Both the ultrafiltrate and the original pooled plasma sample (without ultrafiltration step) were measured. The free fraction was calculated according to the following Eq. 1:1 Freefraction=Ultrafiltrateconcentration/Pooledplasmaconcentration

P-gp = conditions: rat; for Impact of active transport on QPL_ECF (covariate effect of inhibitor): with GF120918 or tariquidar, estimate (RSE, %)
[6] = with probenecid, estimate (RSE, %)

With `CC(=O)Nc1ccc(O)cc1` [Acetaminophen] the “QDIFF, drug dispersion rate in brain and CSF” value (“QDIFF, drug dispersion rate” below) [1] was 0.0556 (10.3) mL/min, the “VPER1, distribution volume of the peripheral compartment 1” value (“VPER1, distribution volume” for short) [1] was 219 (8.90) mL and the “VPL, distribution volume of the central compartment” value (shortened to “VPL, distribution volume”) [1] was 65.7 (25.4) mL. For the same molecule, the “fraction; percentage of the drug which is reabsorbed by enterohepatic circulation” value [1] was 93.3(1.20) %, the “log D (pH 7.4)” value [2] was 0.5 and the “No. of H acceptors” value [2] was 2. The “No. of H donors” value [2] was 2, the PSA [2] was 49 and the “pKa (Base)” value [2] was -4.4. The “fP (%), free fraction in plasma” value ([3]; ref Westerhout, 2011) was 81% and the “fp, free fraction in plasma” value [4] was 85%.
For `CC(C)NCC(O)COc1ccc(CC(N)=O)cc1` (stereo not drawn) [Atenolol], the “No. of H acceptors” value [2] is listed as 4 and the “No. of H donors” value [2] is listed as 3.
In the case of `CN(Cc1cnc2nc(N)nc(N)c2n1)c1ccc(C(=O)N[C@@H](CCC(=O)O)C(=O)O)cc1` [Methotrexate], the clearance [1] is reported as 8.12 mL/min, the “QDIFF, drug dispersion rate” value [1] is reported as 0.0598 (9.30) mL/min and the “VPER1, distribution volume” value [1] is reported as 210 (7.20) mL. For the same molecule, the “VPER2, distribution volume of the peripheral compartment 2” value [1] was 114 (6.60) mL, the “VPL, distribution volume” value [1] was 51.2 (20.3) mL and the “QDIFF, drug dispersion rate” value ([1]; listed as methotrexate) was 0.0598 mL/min. For the same molecule, the “increase of QPL_ECF in the presence of the inhibitor of MRPs, OATs and OATPs” value (MRPs, OATs and OATPs) was 409%, the “Impact of active transport on QLV_PL (covariate effect of inhibitor)” value (MRPs, OATs and OATPs; [6]) was 0.410 (16.0)^a and the “Impact of active transport on QPL_ECF (covariate effect of inhibitor)” value (MRPs, OATs and OATPs; [6]) was 4.09 (3.7)^a. For the same molecule, the “log D (pH 7.4)” value [2] was -2.5, the “No. of H acceptors” value [2] was 12 and the “No. of H donors” value [2] was 5. For the same molecule, the PSA [2] was 211, the “pKa (Acid)” value [2] was 3.4 and the “pKa (Base)” value [2] was 2.8. For the same molecule, the “fP (%), free fraction in plasma” value ([3]; ref Westerhout, 2014) was 45%.
In the case of `CN1CC[C@]23c4c5ccc(O)c4O[C@H]2[C@@H](O)C=C[C@H]3[C@H]1C5` [Morphine], the “No. of H acceptors” value [2] is given as 4 and the “No. of H donors” value [2] is given as 2.
For `Cc1nc2n(c(=O)c1CCN1CCC(c3noc4cc(F)ccc34)CC1)CCCC2O` (stereo not drawn) [Paliperidone], the clearance [1] was 192 mL/min, the “QDIFF, drug dispersion rate” value [1] was 0.0248 (10.7) mL/min and the “VPL, distribution volume” value [1] was 28400 (8.00) mL. The fraction unbound [5] was 0.08, the “increase of QPL_ECF in the presence of P-gp inhibitors” value (“increase … of P-gp inhibitors” below) (P-gp) was 43.4% and the “Impact of active transport on QPL_ECF (covariate effect of inhibitor)” value (P-gp) was 0.434 (11.4)^b. The “log D (pH 7.4)” value [2] was 2.1, the “No. of H acceptors” value [2] was 5 and the “No. of H donors” value [2] was 1. For the same molecule, the PSA [2] was 82, the “log P” value [2] was 1.8 and the “pKa (Base)” value [2] was 8.8.
In the case of `O=C1NC(=O)C(c2ccccc2)(c2ccccc2)N1` [Phenytoin], the clearance [1] is reported as 44.7 mL/min, the “QDIFF, drug dispersion rate” value [1] is reported as 0.0133 (13.0) mL/min and the “VPER1, distribution volume” value [1] is reported as 5320 (7.80) mL. The “VPL, distribution volume” value [1] was 2890 (7.90) mL, the “QDIFF, drug dispersion rate” value ([1]; listed as phenytoin) was 0.0133 mL/min and the “increase … of P-gp inhibitors” value (P-gp) was 35.5%. The “Impact of active transport on QPL_ECF (covariate effect of inhibitor)” value (P-gp) was 0.355 (25.1)^b, the “No. of H acceptors” value [2] was 2 and the “No. of H donors” value [2] was 2. The PSA [2] was 58 and the “plasma protein binding (% bound)” value [3] was 91%.
In the case of `C=C[C@H]1C[N@@]2CC[C@H]1C[C@@H]2[C@@H](O)c1ccnc2ccc(OC)cc12` [Quinidine], the “QDIFF, drug dispersion rate” value [1] is reported as 0.0237 (2.40) mL/min, the “increase … of P-gp inhibitors” value (P-gp) is reported as 443% and the “Impact of active transport on QPL_ECF (covariate effect of inhibitor)” value (P-gp) is reported as 4.43 (2.80)^b. For the same molecule, the “No. of H acceptors” value [2] was 4, the “No. of H donors” value [2] was 1 and the PSA [2] was 46. The “fP (%), free fraction in plasma” value ([3]; ref Westerhout, 2013) was 14%.
In the case of `CCN1CCC[C@H]1CNC(=O)c1c(OC)ccc(Br)c1OC` [Remoxipride], the “log D (pH 7.4)” value [2] is given as 0.7, the “No. of H acceptors” value [2] is given as 4 and the “No. of H donors” value [2] is given as 1. For the same molecule, the PSA [2] was 51, the “log P” value [2] was 2.1 and the “pKa (Acid)” value [2] was 13.1. The “pKa (Base)” value [2] was 8.4, the “fP (%), free fraction in plasma” value ([3]; ref Widman, 1993) was 74% and the “plasma protein binding (% bound)” value [3] was 26%.
For `Cc1nc2n(c(=O)c1CCN1CCC(c3noc4cc(F)ccc34)CC1)CCCC2` [Risperidone], the clearance [1] is listed as 465 mL/min, the fraction unbound [5] is listed as 0.07 and the “No. of H acceptors” value [2] is listed as 4. The “No. of H donors” value [2] was 0 and the PSA [2] was 62.
